Measurements reported in patent US20140357577A1, “HIV Membrane Fusion Inhibitors” (priority 2011, published 2014).
Starred links: 1 amine or outer side, 2 acyl side, 3 side chain; linkers in the order of their positions; H or OH if unused. *: point of attachment. cholesteryl‑oxycarbonylmethyl = CC(C)CCC[C@@H](C)[C@H]1CC[C@H]2[C@@H]3CC=C4C[C@@H](OC(=O)C*)CC[C@]4(C)[C@H]3CC[C@]12C; cholesteryl‑succinyl = CC(C)CCC[C@@H](C)[C@H]1CC[C@H]2[C@@H]3CC=C4C[C@@H](OC(=O)CCC(=O)*)CC[C@]4(C)[C@H]3CC[C@]12C; Palmitoyl = CCCCCCCCCCCCCCCC(=O)*; Suc = O=C(CCC(=O)[*:2])[*:1]; Hexanoyl = CCCCCC(=O)*; Pentanoyl = CCCCC(=O)*

Experiments:
[1] = test system: HIV wild type virus strain IIIB; assay: Standard Anti-Viral-Experiment (AVE), HIV-1 replication assay in MT4-LTR-EGFP cells, wild type IIIB; type: cell-based; conditions: 3 days, EGFP signal
Method in brief: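 MT4-LTR-EGFP cells infected with HIV-1 IIIB, HXB2D or HXB2D gp41 mutants V38A/Q40H alongside serial 4-fold compound dilutions, 3 days at 37° C. EGFP read by laser-scanning microscopy; EC50 by linear interpolation against log concentration. Mutant results given as fold change in EC50 versus wild-type HXB2D.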

HIV-IIIB + 50% HS = assay: Standard AVE (50% Human Serum), HIV-1 replication assay in MT4-LTR-EGFP cells; type: cell-based; conditions: fold change vs EC50 in the assay without human serum
From the text: The HIV-1 replication assay (with 50% human serum) measures virus replication as an induction of enhanced green fluorescent protein (EGFP) expression, in the presence of 50% human serum. The indicator MT4-LTR-EGFP cells contain an EGFP gene under the control of the HIV-1 LTR promoter sequence. Successful HIV-1 infection results in viral Tat protein expression and subsequent induction of EGFP expression. Compounds/peptides inhibiting HIV-1 infection are expected to reduce EGFP expression as compared to the untreated HIV-infected control. Compounds/peptides binding to human serum are expected to have a reduced activity for inhibiting the virus in the assay.
Serial 4-fold dilutions of test compounds/peptides were mixed with HIV-1 and MT4-LTR-EGFP cells and incubated at 37° C., in the presence of 50% human serum. After 3 days, the wells were examined for EGFP expression using an argon laser-scanning microscope. The effective compound/peptide concentration inhibiting 50% of the virus-induced EGFP signal (EC50) was determined by linear interpolation of the EGFP signal vs. logarithm of the compound concentration; T20, C34 and Sifuvirtide were added as reference compounds. Results were reported as a fold change in EC50, as compared with the acquired EC50 in the assay without human serum.

[2] = test system: HIV mutant virus strain HXB2D with mutation Q40H in the gp41 gene; assay: Standard AVE, HXB2D site directed mutant Q40H; type: cell-based, HIV-1; conditions: fold change vs wild type strain HXB2D
From the text: • Standard Anti-Viral-Experiment “AVE” (wild type HIV strain IIIB+HIV strain HXB2D side directed mutants V38A and Q40H)
The HIV-1 replication assay measures virus replication (HIV wild type virus strain 111B or HXB2D, or a HIV mutant virus strain HXB2D with mutation V38A or Q40H in the gp41 gene) as an induction of enhanced green fluorescent protein (EGFP) expression. The indicator MT4-LTR-EGFP cells contain an EGFP gene under the control of the HIV-1 LTR promoter sequence. Successful HIV-1 infection results in viral Tat protein expression and subsequent induction of EGFP expression. Compounds/peptides inhibiting HIV-1 infection are expected to reduce EGFP expression as compared to the untreated HIV-infected control.
Serial 4-fold dilutions of test compounds/peptides were mixed with HIV-1 (IIIB, HXB2D, or a HXB2D mutant virus (V38A or Q40H)) and MT4-LTR-EGFP cells and incubated at 37° C. After 3 days, the wells were examined for EGFP expression using an argon laser-scanning microscope. The effective compound/peptide concentration inhibiting 50% of the virus-induced EGFP signal (EC50) was determined by linear interpolation of the EGFP signal vs. logarithm of the compound concentration; (T20, C34 and Sifuvirtide were added as reference compounds). For the V38A and Q40H mutant viruses, results were reported as a fold change in EC50, as compared with a drug-susceptible wild type strain HXB2D, which forms the backbone of the mutant virus. • Standard AVE (50% Human Serum)

| Substance | EC50 [1] | HIV-IIIB + 50% HS (Fold change in EC50) (HIV-IIIB + 50% HS) | HIV-HXB2D Q40H mutant (fold change in EC50) [2] |
| --- | --- | --- | --- |
| AC-ACYLACIEALIRRAQEQQEKNEAALR-NH2 [Peptide 51] | 3 nM | 1 | 93 |
| AC-ECYLACIEALIRAAQEQQEKNEAALR-NH2 [Peptide 45] | – | 1 | 64 |
| ANYAALIEALIRAAQEQQEKNEAALR [Peptide 2] | 77 nM | 1 | >28 |
| ANYLALIEELIRAAQEQQEKNEAALR [Peptide 10] | 4 nM | 0.4 | >695 |
| Ac-ACYAACIEALIRAAQEQQEKNEAALR-NH2 [Peptide 66] | 3 nM | 2 | 231 |
| Ac-ACYAACIEALIRAAQEQQEKNEAALR-NH2 [Peptide 68] | – | 2 | >67 |
| Ac-ACYLACIEALIRKAQEQQEKNEAALR-NH2 [Peptide 48] | 3 nM | 1 | 62 |
| Ac-ANYLALIEALIRAAQEQQEKNEAALRGSGK(cholesteryl-succinyl)-NH2 (Ac-ANYLALIEALIRAAQEQQEKNEAALRGSGK(cholesteryl‑succinyl)-NH2; SMILES CC[C@H](C)[C@H](NC(=O)[C@H](CC(C)C)NC(=O)[C@H](C)NC(=O)[C@H](CCC(=O)O)NC(=O)[C@@H](NC(=O)[C@H](CC(C)C)NC(=O)[C@H](C)NC(=O)[C@H](CC(C)C)NC(=O)[C@H](Cc1ccc(O)cc1)NC(=O)[C@H](CC(N)=O)NC(=O)[C@H](C)NC(C)=O)[C@@H](C)CC)C(=O)N[C@@H](CCCNC(=N)N)C(=O)N[C@@H](C)C(=O)N[C@@H](C)C(=O)N[C@@H](CCC(N)=O)C(=O)N[C@@H](CCC(=O)O)C(=O)N[C@@H](CCC(N)=O)C(=O)N[C@@H](CCC(N)=O)C(=O)N[C@@H](CCC(=O)O)C(=O)N[C@@H](CCCCN)C(=O)N[C@@H](CC(N)=O)C(=O)N[C@@H](CCC(=O)O)C(=O)N[C@@H](C)C(=O)N[C@@H](C)C(=O)N[C@@H](CC(C)C)C(=O)N[C@@H](CCCNC(=N)N)C(=O)NCC(=O)N[C@@H](CO)C(=O)NCC(=O)N[C@@H](CCCCNC(=O)CCC(=O)O[C@H]1CC[C@@]2(C)C(=CC[C@H]3[C@@H]4CC[C@H]([C@H](C)CCCC(C)C)[C@@]4(C)CC[C@@H]32)C1)C(N)=O) [Peptide 69] | 0.3 nM | – | 11 |
| Ac-ECYAACIEELIRKAQEQQEKNEAALR-NH2 [Peptide 53] | 21 nM | 0.3 | >164 |
| Ac-ECYLACIEELIRKAQEQQEKNEAALR-NH2 [Peptide 37] | – | 0.7 | 108 |
| Hexanoyl-ECYLACIEELIRKAQEQQEKNEAALR-NH2 (cysteine pairing not given here) [Peptide 42] | 1 nM | – | 27 |
| Pentanoyl-ECYLACIEALIRAAQEQQEKNEAALR-NH2 (cysteine pairing not given here) [Peptide 38] | 1 nM | – | 45 |
| Pentanoyl-ECYLACIEELIRKAQEQQEKNEAALR-NH2 (cysteine pairing not given here) [Peptide 41] | 1 nM | – | 42 |
| SWETWEREIENYTRQIYRILEESQEQQDRNERDLLE [Sifuvirtide, reference compound] | 2 nM | – | 2 |
| Suc-ANYLALIEALIRAAQEQQEKNEAALRGSGC(cholesteryl-oxycarbonylmethyl)-NH2 (Suc-ANYLALIEALIRAAQEQQEKNEAALRGSGC(cholesteryl‑oxycarbonylmethyl)-NH2; SMILES CC[C@H](C)[C@H](NC(=O)[C@H](CC(C)C)NC(=O)[C@H](C)NC(=O)[C@H](CCC(=O)O)NC(=O)[C@@H](NC(=O)[C@H](CC(C)C)NC(=O)[C@H](C)NC(=O)[C@H](CC(C)C)NC(=O)[C@H](Cc1ccc(O)cc1)NC(=O)[C@H](CC(N)=O)NC(=O)[C@H](C)NC(=O)CCC(=O)O)[C@@H](C)CC)C(=O)N[C@@H](CCCNC(=N)N)C(=O)N[C@@H](C)C(=O)N[C@@H](C)C(=O)N[C@@H](CCC(N)=O)C(=O)N[C@@H](CCC(=O)O)C(=O)N[C@@H](CCC(N)=O)C(=O)N[C@@H](CCC(N)=O)C(=O)N[C@@H](CCC(=O)O)C(=O)N[C@@H](CCCCN)C(=O)N[C@@H](CC(N)=O)C(=O)N[C@@H](CCC(=O)O)C(=O)N[C@@H](C)C(=O)N[C@@H](C)C(=O)N[C@@H](CC(C)C)C(=O)N[C@@H](CCCNC(=N)N)C(=O)NCC(=O)N[C@@H](CO)C(=O)NCC(=O)N[C@@H](CSCC(=O)O[C@H]1CC[C@@]2(C)C(=CC[C@H]3[C@@H]4CC[C@H]([C@H](C)CCCC(C)C)[C@@]4(C)CC[C@@H]32)C1)C(N)=O) [Peptide 35] | 0.3 nM | – | 24 |
| Suc-ECYLACIEELIRKAQEQQEKNEAALR-NH2 (cysteine pairing not given here) [Peptide 90] | 1 nM | – | 65 |
| Suc-ENYLALIEELIRKAQEQQEKNEAALR-NH2 (SMILES CC[C@H](C)[C@H](NC(=O)[C@H](CC(C)C)NC(=O)[C@H](C)NC(=O)[C@H](CC(C)C)NC(=O)[C@H](Cc1ccc(O)cc1)NC(=O)[C@H](CC(N)=O)NC(=O)[C@H](CCC(=O)O)NC(=O)CCC(=O)O)C(=O)N[C@@H](CCC(=O)O)C(=O)N[C@@H](CCC(=O)O)C(=O)N[C@@H](CC(C)C)C(=O)N[C@H](C(=O)N[C@@H](CCCNC(=N)N)C(=O)N[C@@H](CCCCN)C(=O)N[C@@H](C)C(=O)N[C@@H](CCC(N)=O)C(=O)N[C@@H](CCC(=O)O)C(=O)N[C@@H](CCC(N)=O)C(=O)N[C@@H](CCC(N)=O)C(=O)N[C@@H](CCC(=O)O)C(=O)N[C@@H](CCCCN)C(=O)N[C@@H](CC(N)=O)C(=O)N[C@@H](CCC(=O)O)C(=O)N[C@@H](C)C(=O)N[C@@H](C)C(=O)N[C@@H](CC(C)C)C(=O)N[C@@H](CCCNC(=N)N)C(N)=O)[C@@H](C)CC) [Peptide 19] | 1 nM | – | 151 |
| Suc-ENYLRLIEELIRKAQEQQEKNEAALRGSGK(palmitoyl)-NH2 (Suc-ENYLRLIEELIRKAQEQQEKNEAALRGSGK(Palmitoyl)-NH2; SMILES CCCCCCCCCCCCCCCC(=O)NCCCC[C@H](NC(=O)CNC(=O)[C@H](CO)NC(=O)CNC(=O)[C@H](CCCNC(=N)N)NC(=O)[C@H](CC(C)C)NC(=O)[C@H](C)NC(=O)[C@H](C)NC(=O)[C@H](CCC(=O)O)NC(=O)[C@H](CC(N)=O)NC(=O)[C@H](CCCCN)NC(=O)[C@H](CCC(=O)O)NC(=O)[C@H](CCC(N)=O)NC(=O)[C@H](CCC(N)=O)NC(=O)[C@H](CCC(=O)O)NC(=O)[C@H](CCC(N)=O)NC(=O)[C@H](C)NC(=O)[C@H](CCCCN)NC(=O)[C@H](CCCNC(=N)N)NC(=O)[C@@H](NC(=O)[C@H](CC(C)C)NC(=O)[C@H](CCC(=O)O)NC(=O)[C@H](CCC(=O)O)NC(=O)[C@@H](NC(=O)[C@H](CC(C)C)NC(=O)[C@H](CCCNC(=N)N)NC(=O)[C@H](CC(C)C)NC(=O)[C@H](Cc1ccc(O)cc1)NC(=O)[C@H](CC(N)=O)NC(=O)[C@H](CCC(=O)O)NC(=O)CCC(=O)O)[C@@H](C)CC)[C@@H](C)CC)C(N)=O) [Peptide 55] | 0.05 nM | 3 | – |
| Suc-aNYLALIEALIRAAQEQQEKNEAALr-NH2 [Peptide 12] | 10 nM | 0.4 | – |
